# According to PubChem BioAssay (NCI):
#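 Tested at 5 concentrations; 48 h exposure; 96-well plates; endpoints linearly interpolated, else capped at highest concentration. TGI marks complete inhibition of growth.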
# Tests used:
# Assay in all cases: inhibition of tumour cell growth, NCI panel, 48 h
# MCF7 breast = tested on: MCF7 breast
# NCI/ADR-RES ovarian = tested on: NCI/ADR-RES ovarian
# MDA-MB-231 breast = tested on: MDA-MB-231 breast
# HOP-62 NSCLC = tested on: HOP-62 NSCLC
# HL-60(TB) leukemia = tested on: HL-60(TB) leukemia
# HCT-116 colon = tested on: HCT-116 colon
# SK-MEL-2 melanoma = tested on: SK-MEL-2 melanoma
# OVCAR-5 ovarian = tested on: OVCAR-5 ovarian
# NCI-H522 lung = tested on: NCI-H522 lung
# COLO 205 colon = tested on: COLO 205 colon
# SF-539 CNS = tested on: SF-539 CNS
# HCC-2998 colon = tested on: HCC-2998 colon
# SK-MEL-28 melanoma = tested on: SK-MEL-28 melanoma
# KM12 colon = tested on: KM12 colon
# U251 CNS = tested on: U251 CNS
# TK-10 renal = tested on: TK-10 renal
# HOP-92 NSCLC = tested on: HOP-92 NSCLC
SMILES,TGI (MCF7 breast) [µM],TGI (NCI/ADR-RES ovarian) [µM],TGI (MDA-MB-231 breast) [µM],TGI (HOP-62 NSCLC) [µM],TGI (HL-60(TB) leukemia) [µM],TGI (HCT-116 colon) [µM],TGI (SK-MEL-2 melanoma) [µM],TGI (OVCAR-5 ovarian) [µM],TGI (NCI-H522 lung) [µM],TGI (COLO 205 colon) [µM],TGI (SF-539 CNS) [µM],TGI (HCC-2998 colon) [µM],TGI (SK-MEL-28 melanoma) [µM],TGI (KM12 colon) [µM],TGI (U251 CNS) [µM],TGI (TK-10 renal) [µM],TGI (HOP-92 NSCLC) [µM]
Nc1cccnc1NCC1(CO)CCCC1,> 100,> 100,> 100,> 100,> 100,> 100,> 100,> 100,> 100,> 100,> 100,> 100,> 100,> 100,> 100,> 100,–
O=c1c2ccccc2[nH]c2c(Cl)cc(Cl)c(NC3CCCCC3)c12,76.2,44,74.3,60.8,43.9,> 100,41.9,53.9,44,> 100,57.8,89.9,> 100,32.4,36.9,61.3,–
O=C1N[C@H]2c3c(Cl)sc(Cl)c3[C@@H](O)[C@H]2O1,> 100,> 100,> 100,> 100,> 100,> 100,> 100,> 100,–,> 100,> 100,> 100,> 100,> 100,> 100,> 100,–
COC(=O)c1cc2c(cc1CC1Cc3cc4c(cc3C1=O)CCC4)CCC2 (configuration not stated),> 100,> 100,> 100,> 100,> 100,> 100,> 100,> 100,> 100,> 100,> 100,> 100,> 100,> 100,> 100,> 100,–
COc1ccccc1NC(=S)Nc1cc(C)cc(C)n1,> 100,> 100,> 100,> 100,> 100,> 100,> 100,> 100,–,> 100,> 100,> 100,> 100,> 100,> 100,> 100,–
O=C1N=C(SC2OC(CO)C(O)C(O)C2O)S/C1=C\c1ccccc1 (configuration not stated),> 100,> 100,> 100,> 100,> 100,–,> 100,> 100,> 100,–,> 100,> 100,> 100,> 100,–,> 100,–
CCC(C)(C)C1CCC2c3c([nH]c4ccccc34)C3C(=O)N(c4ccc(OC)cc4)C(=O)C3C2C1 (configuration not stated),22.6,44.4,32.3,23.2,–,37.2,40.3,45.6,20.6,24.7,33.5,40.5,> 100,12.2,54.8,56.2,–
CN(C)/N=C(/CC(O)(C(F)(F)F)C(F)(F)F)c1ccc([N+](=O)[O-])cc1,–,> 100,> 100,> 100,> 100,> 100,> 100,> 100,> 100,> 100,> 100,> 100,> 100,> 100,> 100,–,> 100
COc1ccc(/C=C2\CCC(C)C3C2=NN(c2ccccc2)C3c2ccc(OC)c(OC)c2)cc1OC (configuration not stated),21.8,18.3,12.5,–,7.07,5.5,7.87,24,–,17.2,7.49,–,31.6,6.46,> 100,6.93,–
Cc1ccc(/C(Cl)=C/C=C(C#N)C#N)cc1,> 100,4.48,6.33,3.88,36.9,–,> 100,7.48,5.17,12.1,6.37,–,5.12,21,18.4,13.2,–
O=P1(O)c2ccccc2CCc2ccccc21,> 100,–,> 100,> 100,–,> 100,> 100,–,> 100,> 100,> 100,> 100,> 100,> 100,–,> 100,> 100
COC(=O)CC(c1cn(S(=O)(=O)c2ccc(C)cc2)c2ccccc12)C1C[C@@H](C(=O)OC)N(C(=O)OC(C)(C)C)C1=O (some centres not stated),> 100,> 100,> 100,> 100,> 100,> 100,> 100,> 100,> 100,86.6,65.6,–,> 100,> 100,> 100,> 100,–
COc1ccc(N2C(=O)/C(=C/c3ccc(N(CCC#N)CCC#N)cc3C)N=C2c2cc([N+](=O)[O-])ccc2Cl)cc1,> 46.4,–,49.4,> 63.1,26.6,29.3,39.6,> 63.1,12.5,25.6,7.22,15.2,> 63.1,45.8,43.3,> 63.1,> 100
